Measurements published in publication PMC7822874, “Chemoprotective antimalarials identified through quantitative high-throughput screening of Plasmodium blood and liver stage parasites” (Scientific Reports, 2021).
Read-outs that look alike come from different tables or passages of the source.

Columns and labels:
[1] = tested on: P. falciparum Dd2 Cytb G131S; experiment: SYBR Green ABS proliferation assay, NCGC00374598 selected clone C11; format: cell-based, Plasmodium falciparum; conditions: Plasmodium falciparum
How it was run: (§1)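 Drug-selected Dd2 clones bearing the cytochrome b mutation were cultured at 37 °C under 5% CO2, 5% O2, 90% N2. Growth was read at 72 h by SYBR Green-I fluorescence, normalized to controls as percent response.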

[2] = tested on: P. falciparum Dd2 Cytb V259L; experiment: SYBR Green ABS proliferation assay, NCGC00473217 selected clone F06; format: cell-based, Plasmodium falciparum; conditions: Plasmodium falciparum
How it was run: as §1

[3] = tested on: P. falciparum Dd2 Cytb A122D; experiment: SYBR Green ABS proliferation assay, NCGC00473217 selected clone F12; format: cell-based, Plasmodium falciparum; conditions: Plasmodium falciparum
How it was run: as §1

[4] = tested on: P. falciparum Dd2 Cytb F123L; experiment: SYBR Green ABS proliferation assay, NCGC00473217 selected clone G08; format: cell-based, Plasmodium falciparum; conditions: Plasmodium falciparum
Procedure: As resistance selection studies implicated the parasite cytochrome bc1 complex in mediating reduced parasite susceptibility to both NCGC00473217 and NCGC00374598, we leveraged these drug-selected parasites to test for altered drug response to a panel of antimalarial compounds.
The P. falciparum parasite Dd2 line was cultured in vitro using standard conditions. […] Tissue culture flasks and assay plates were incubated at 37 °C under a gas mixture of 5% CO2, 5% O2 and 90% N2. […] Significant differences were assessed using two-sided Student’s t-tests. All HTS assays were stopped and read at 72 h. Percent response values represent relative growth as judged by SYBR Green-I fluorescence intensity values normalized to controls.
Fresh uninfected RBCs (0.5% hematocrit) were added on day 7 and media was changed every other day. […] Resistant parasites were maintained under drug media at a volume of 50 mL until a high parasitemia (> 5%) was achieved. Aliquots of the bulk resistant cultures were frozen in cryovials before cloning by limiting dilution in 96-well plates (seeded at 0.25 or 0.5 parasites/well)[70]. After 3 weeks of cloning, we screened for positive wells by flow cytometry with SYBR Green-stained cells. […] Parasites were harvested by saponin lysis at the trophozoite stage and genomic DNA was extracted using the QIAamp DNA Blood Midi Kit (Qiagen, Germantown, MD)[71].

[5] = tested on: Plasmodium falciparum Dd2 asexual blood stage parasites; experiment: microbe, parasite or virus in culture; set-up: species or system Plasmodium falciparum Dd2 in human erythrocytes; single determination (one 11-point concentration-response curve); conditions: Plasmodium falciparum, DD2, Erythrocyte, 72 h; read-out: AC50
[6] = DD2, cytochrome b mutant line, second value triple, c6, […], read-out: log AC50, mean (converted)
[7] = DD2, cytochrome b mutant line, third value triple, c9, […], read-out: log AC50, mean (converted)
[8] = DD2, cytochrome b mutant line, fourth value triple, c12, […], read-out: log AC50, mean (converted)
[9] = DD2, cytochrome b mutant line, fifth value triple, c15, […], read-out: log AC50, mean (converted)
[10] = DD2, […], averaged from three independent replicates, top concentration 29 µM, read-out: Average AC50 (Log[M]), NCGC00374598 clone C11 (Cytb G131S) (converted)
[11] = DD2, […], averaged from three independent replicates, top concentration 29 µM, read-out: Average AC50 (Log[M]), NCGC00473217 clone F06 (Cytb V259L) (converted)
[12] = DD2, […], averaged from three independent replicates, top concentration 29 µM, read-out: Average AC50 (Log[M]), NCGC00473217 clone F12 (Cytb A122D) (converted)
[13] = DD2, […], averaged from three independent replicates, top concentration 29 µM, read-out: Average AC50 (Log[M]), NCGC00473217 clone G08 (Cytb F123L) (converted)

SMILES | AC50 [1, 6] | AC50 [2, 7] | AC50 [3, 8] | AC50 [4, 9] | AC50 [5] | AC50 [1, 10] | AC50 [2, 11] | AC50 [3, 12] | AC50 [4, 13]
CCc1nc2c(c(-c3ccc(O)cc3)n1)CCN(Cc1ccccc1C(F)(F)F)CC2 [NCGC00480300-01] | 3.9e-06 M | 4.73e-06 M | 4.22e-06 M | 4.06e-06 M | 2.99 µM |  |  |  | 
CC(C)c1nc2c(c(-c3ccc(O)cc3)n1)CCN(Cc1ccc(C(F)(F)F)cc1)CC2 [NCGC00480320-01] | 3.76e-06 M | 4.73e-06 M | 4.91e-06 M | 4.55e-06 M | 5.31 µM |  |  |  | 
CC(C)c1nc2c(c(-c3ccc(O)cc3)n1)CCN(Cc1ccccc1C(F)(F)F)CC2 [NCGC00480324-01] | 4.06e-06 M | 4.73e-06 M | 4.55e-06 M | 4.22e-06 M | 4.73 µM |  |  |  | 
O=c1[nH]c(N2CCOCC2)nc2c1CCN(Cc1ccc(Cl)c(F)c1)CC2 [NCGC00440655-01] | 1.14e-05 M | 1.38e-05 M | 1.28e-05 M | 4.55e-06 M |  |  |  |  | 
CCCN1C(CC(C)C)=N[S+](=O)([O-])c2cc(NCc3ccc(F)cc3)ccc21 [NCGC00531784-01] | 4.15e-06 M | 1.19e-05 M | 1.42e-05 M | 1.26e-05 M |  |  |  |  | 
CCCN1C(CC(C)C)=N[S+](=O)([O-])c2cc(NC(=O)c3ccccc3C(F)(F)F)ccc21 [NCGC00531765-01] | 7.67e-06 M | 7.52e-06 M | 1.17e-05 M | 1.17e-05 M |  |  |  |  | 
COc1ccc(-c2nc(C(C)C)nc3c2CCN(C(=O)Cc2cccc(Cl)c2)CC3)cc1 [NCGC00479508-01] | 1.33e-05 M | 1.74e-05 M | 1.44e-05 M | 1.28e-05 M |  |  |  |  | 
CCCN1C(CC2CCC2)=N[S+](=O)([O-])c2cc(NC(=O)c3cccs3)ccc21 [NCGC00537664-01] | 4.66e-07 M | 1.19e-06 M | 1.36e-06 M | 1.78e-06 M |  |  |  |  | 
COc1ccc(-c2nc(C3CC3)nc3c2CCN(C(=O)c2ccc(C(F)(F)F)cc2)CC3)cc1 [NCGC00374638-01] | 1.19e-05 M | 1.38e-05 M | 1.28e-05 M | 1.06e-05 M |  |  |  |  | 
CCCN1C(CC(C)C)=N[S+](=O)([O-])c2cc(NC(=O)c3cccc(OC)c3)ccc21 [NCGC00531773-01] | 3.56e-06 M | 7.67e-06 M | 1e-05 M | 1.06e-05 M |  |  |  |  | 
CCCN1C(CC(C)C)=N[S+](=O)([O-])c2cc(NC(=O)c3cn(C)cn3)ccc21 [NCGC00521148-01] |  |  |  |  |  | 2.67e-06 M | 1.17e-05 M | 1.12e-05 M | 7.1e-06 M
COc1ccc(CN2CCc3nc(C4CC4)nc(-c4ccc(O)cc4)c3CC2)cc1 [NCGC00480355-01] | 1.06e-05 M | 1.61e-05 M | 1.19e-05 M | 1.23e-05 M |  |  |  |  | 
COc1ccc(-c2nc(C3CC3)nc3c2CCN(Cc2ccccc2)CC3)cc1 [NCGC00374622-01] | 6.43e-06 M | 6.93e-06 M | 6.93e-06 M | 6.68e-06 M |  |  |  |  | 
CCCN1C(CC(C)C)=N[S+](=O)([O-])c2cc(NCc3cccs3)ccc21 [NCGC00531814-01] | 1.59e-05 M | 1.78e-05 M | 1.93e-05 M | 1.59e-05 M |  |  |  |  | 
COc1ccc(-c2nc(C3CC3)nc3c2CCN(Cc2ccc(C#N)cc2)CC3)cc1 [NCGC00374656-01] | 7.5e-06 M | 1.14e-05 M | 8.41e-06 M | 8.09e-06 M |  |  |  |  | 
CCc1nc2c(c(-c3ccc(O)cc3)n1)CCN(Cc1cccn1C)CC2 [NCGC00480312-01] | 1.88e-05 M | 1.74e-05 M | 1.44e-05 M | 1.14e-05 M |  |  |  |  | 
CCCN1C(CC(C)C)=N[S+](=O)([O-])c2cc(NCc3ccccc3)ccc21 [NCGC00531800-01] | 1e-05 M | 1.12e-05 M | 9.46e-06 M | 1.42e-05 M |  |  |  |  | 
CCCN1C(CC(C)C)=N[S+](=O)([O-])c2cc(NC(=O)c3cccc(Cl)c3)ccc21 [NCGC00531770-01] | 4.74e-06 M | 3.56e-06 M | 2.82e-06 M | 4.48e-06 M |  |  |  |  | 
O=c1[nH]c(N2CCOCC2)nc2c1CCN(Cc1ccc(C(F)(F)F)cc1)CC2 [NCGC00440629-01] | 6.43e-06 M | 1.5e-05 M | 9.08e-06 M | 1.88e-06 M |  |  |  |  | 
Cc1ccccc1C(=O)N1CCc2nc(C3CC3)nc(-c3ccc(O)cc3)c2CC1 [NCGC00480365-01] | 1.38e-05 M | 1.28e-05 M | 1.81e-05 M | 1.38e-05 M |  |  |  |  | 
CCCN1C(Cc2ccccc2)=N[S+](=O)([O-])c2cc(NC(=O)c3cccs3)ccc21 [NCGC00532337-01] | 3.05e-06 M | 7.96e-07 M | 7.1e-06 M | 1e-05 M |  |  |  |  | 
N[S+](=O)([O-])c1cc2c(cc1C(F)(F)F)NCN[S+]2(=O)[O-] [NCGC00016401-08] |  |  |  |  |  | 2.24e-05 M | 3.85e-06 M | 3.56e-06 M | 3.56e-06 M
Cc1cc(CN2CCc3nc(C(C)C)nc(-c4ccc(Cl)cc4)c3CC2)no1 [NCGC00374612-01] | 1.55e-05 M | 1.38e-05 M | 1.68e-05 M | 9.79e-06 M |  |  |  |  | 
CCCN1C(CC(C)C)=N[S+](=O)([O-])c2cc(NC(=O)c3ccc(Cl)cc3)ccc21 [NCGC00531775-01] | 2e-07 M | 6.32e-07 M | 2.24e-07 M | 3.17e-06 M |  |  |  |  | 
COc1ccc(-c2nc(C(C)C)nc3c2CCN(C(=O)Nc2ccccc2)CC3)cc1 [NCGC00479509-01] | 1.19e-05 M | 1.61e-05 M | 1.44e-05 M | 1.23e-05 M |  |  |  |  | 
COc1ccc(-c2nc(C(C)C)nc3c2CCN(S(=O)(=O)c2cccc(C(F)(F)F)c2)CC3)cc1 [NCGC00479522-01] | 1.1e-05 M | 1.28e-05 M | 1.68e-05 M | 1.14e-05 M |  |  |  |  | 
CCCN1C(CC2CCOCC2)=N[S+](=O)([O-])c2cc(NC(=O)c3cccs3)ccc21 [NCGC00537663-01] | 3.7e-06 M | 4.66e-06 M | 2.82e-06 M | 3.56e-06 M |  |  |  |  | 
CCCN1C(Cc2ccccc2)=N[S+](=O)([O-])c2cc(NC(=O)c3ccc(F)cc3)ccc21 [NCGC00532338-01] | 8.93e-08 M | 7.67e-07 M | 3.17e-06 M | 3.56e-07 M |  |  |  |  | 
COc1ccc(-c2nc(C3CC3)nc3c2CCN(Cc2ccc(F)cc2)CC3)cc1 [NCGC00374624-01] | 8.73e-06 M | 9.79e-06 M | 1.1e-05 M | 9.08e-06 M |  |  |  |  | 
